Measured values published in US10428028B2, “HDAC inhibitors” (BIOMARIN PHARMACEUTICAL INC., priority 2013, dated 2019).

How the values were obtained:
HDAC2 = HDAC2 (Homo sapiens (Human), UniProt Q92769); experiment: HDAC enzyme inhibition assay (Fluor-de-Lys), HDAC2; format: biochemical; conditions: 2 hours pre-incubation
Procedure: The HDAC activity inhibition assay was performed as follows to determine the ability of a test compound to inhibit HDAC enzymatic activity. Serial dilutions of HDAC inhibitors were prepared in HDAC assay buffer (25 mM Tris/HCl, pH 8.0, 137 mM NaCl, 2.7 mM KCl, 1 mM MgCl2, pH 8) in 96-well assay plates (Fisher scientific, #07-200-309) and were pre-incubated for 2 hours at room temperature in the presence of 125 μg/ml BSA and purified HDAC1 (BPS Bioscience, San Diego, Calif., #50051), HDAC2 (BPS Bioscience, #50053), or HDAC3/NcoR2 (BPS Bioscience, #50003) at concentrations of 1.25, 1.32, and 0.167 μg/mL, respectively. Following pre-incubation, Fluor-de-Lys™ substrate (Enzo Life Sciences, Plymouth Meeting, Pa., BML-KI104-0050) was added to a final concentration of 10 μM and plates were further incubated for 30 minutes at room temperature. The enzymatic reaction was stopped by addition of Trichostatin A (Sigma-Aldrich, St Louis, Mo., #T8552, final concentration: 100 nM) and trypsin (MP Biomedicals, Solon, Ohio, #02101179) was added to reach a final concentration of 100 μg/mL. After a 15 minute incubation at room temperature, fluorescence was recorded using a Spectramax M2 fluorometer (Molecular Devices, Sunnyvale, Calif.) with excitation at 365 nm and emission at 460 nm. IC50 values were calculated by using a sigmoidal dose-response (variable slope) equation in GraphPad Prism® 5 for Windows (GraphPad Software, La Jolla, Calif.). Results for selected compounds in the HDAC activity inhibition assay are presented in Table 5 (IC50 ranges: IA>20 μM, A<1 μM, 1<B<5 μM, 5<C<10 μM, 10<D<20 μM, ND: not determined).

Frataxin (FXN) mRNA = experiment: Effect of HDAC inhibitors on frataxin (FXN) mRNA expression; format: cell-based, human (Friedreich's ataxia patient primary lymphocytes); conditions: Friedreich's ataxia patient primary lymphocytes, 48 hours
Procedure: Blood is collected from Friedreich's ataxia patient donors into tubes containing the anti-coagulant EDTA. Primary lymphocytes are isolated using Lymphocyte Separation Medium (MP Biomedicals, Solon, Ohio) following the manufacturer's instructions and including a few modifications made by Repligen. After a final wash in Phosphate Buffered Saline (PBS), the cells are distributed into a 6-well cell culture plate in cell growth medium. The test HDAC inhibitor compound is added to cells in a dose escalating manner (usually concentrations range from 1 to 10 μM) and 0.1% DMSO is added to one well of cells as a no treatment control. […] The RNA yield and concentration is determined using a Nanodrop spectrophotometer (Thermo Fisher Scientific, Waltham, Mass.) and depending on the RNA concentration, one of two protocols is used to measure frataxin (FXN) transcript levels. […] In both methods each RNA sample is analyzed in triplicate (preferably) or duplicate (minimally) using a one-step qRT-PCR master mix that contains all the components necessary for cDNA synthesis and PCR amplification in a single, continuous reaction. […] The amount of FXN (or GAPDH) in the sample is determined as the relative quantity to the calibrator where the calibrator sample is assigned an arbitrary quantity of 1. […] The relative quantity of FXN is normalized to cell number and RNA input. […]

Sequence of HDAC2 (Q92769 whole entry): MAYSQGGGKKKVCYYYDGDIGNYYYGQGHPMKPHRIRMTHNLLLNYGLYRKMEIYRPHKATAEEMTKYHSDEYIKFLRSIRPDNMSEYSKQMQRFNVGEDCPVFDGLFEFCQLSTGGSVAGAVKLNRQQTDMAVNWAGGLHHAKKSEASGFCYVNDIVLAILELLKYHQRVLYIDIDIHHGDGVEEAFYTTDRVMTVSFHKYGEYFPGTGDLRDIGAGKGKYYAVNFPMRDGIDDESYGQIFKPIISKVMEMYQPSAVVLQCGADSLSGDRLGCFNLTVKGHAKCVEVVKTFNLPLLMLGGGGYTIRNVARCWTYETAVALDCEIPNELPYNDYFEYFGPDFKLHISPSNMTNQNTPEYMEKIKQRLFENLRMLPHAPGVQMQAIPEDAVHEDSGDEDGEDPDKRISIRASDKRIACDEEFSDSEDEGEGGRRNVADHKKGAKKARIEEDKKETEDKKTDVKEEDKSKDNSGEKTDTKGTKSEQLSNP

SMILES	IC50 (HDAC2) [nM]	Fxn >2X (concentration required for a 2-fold increase in FXN mRNA) (Frataxin (FXN) mRNA)
Cc1ccc(Cn2ncc3cc(C(=O)Nc4ccc(F)cc4N)ccc32)c(C)n1 [Compound A8]	1000 to 5000	–
Nc1ccccc1NC(=O)c1ccc2c(cnn2Cc2ccc(F)c(F)c2)c1 [Compound A9]	< 1000	A (A if less than 5 μM)
Nc1cc(F)ccc1NC(=O)c1ccc2c(cnn2CC2CC2)c1 [Compound A12]	5000 to 10000	C (C if greater than 10 μM)
Nc1ccccc1NC(=O)c1ccc2nn(Cc3cccnc3)cc2c1 [Compound A13]	< 1000	–
Cc1ccc(Cn2cc3cc(C(=O)Nc4ccccc4N)ccc3n2)c(C)n1 [Compound A15]	1000 to 5000	–

Continued, in another order:

IC50 (HDAC2) [nM]	SMILES	Fxn >2X (concentration required for a 2-fold increase in FXN mRNA) (Frataxin (FXN) mRNA)
< 1000	Nc1ccccc1NC(=O)c1ccc2c(cnn2Cc2cccnc2)c1 [Compound A1]	–
< 1000	Nc1ccccc1NC(=O)c1ccc2c(cnn2Cc2ccccc2)c1 [Compound A2]	–
< 1000	Cn1cc(Cn2ncc3cc(C(=O)Nc4ccccc4N)ccc32)cn1 [Compound A3]	–
< 1000	Cc1ccc(Cn2ncc3cc(C(=O)Nc4ccccc4N)ccc32)c(C)n1 [Compound A5]	–
< 1000	Nc1cc(F)ccc1NC(=O)c1ccc2c(cnn2Cc2cccnc2)c1 [Compound A6]	–
< 1000	Nc1cc(F)ccc1NC(=O)c1ccc2c(cnn2Cc2cncc(F)c2)c1 [Compound A7]	–
